Data as given in patent US20210122730A1, “GLUCOCORTICOID RECEPTOR MODULATORS” (ORIC Pharmaceuticals, Inc., priority 2017, published 2021).

These compounds were tested against T1, GR (Homo sapiens, UniProt P04150) (assay: In Vitro GR Luciferase Reporter Assay (antagonist mode, CHO-K1-GR-MMTV-Luc reporter cells)). Settings: antagonist mode, 10 nM Dexamethasone.
T1 construct: expressed in transfected cells; host or cells: CHO-K1
T1 sequence (P04150 1-777): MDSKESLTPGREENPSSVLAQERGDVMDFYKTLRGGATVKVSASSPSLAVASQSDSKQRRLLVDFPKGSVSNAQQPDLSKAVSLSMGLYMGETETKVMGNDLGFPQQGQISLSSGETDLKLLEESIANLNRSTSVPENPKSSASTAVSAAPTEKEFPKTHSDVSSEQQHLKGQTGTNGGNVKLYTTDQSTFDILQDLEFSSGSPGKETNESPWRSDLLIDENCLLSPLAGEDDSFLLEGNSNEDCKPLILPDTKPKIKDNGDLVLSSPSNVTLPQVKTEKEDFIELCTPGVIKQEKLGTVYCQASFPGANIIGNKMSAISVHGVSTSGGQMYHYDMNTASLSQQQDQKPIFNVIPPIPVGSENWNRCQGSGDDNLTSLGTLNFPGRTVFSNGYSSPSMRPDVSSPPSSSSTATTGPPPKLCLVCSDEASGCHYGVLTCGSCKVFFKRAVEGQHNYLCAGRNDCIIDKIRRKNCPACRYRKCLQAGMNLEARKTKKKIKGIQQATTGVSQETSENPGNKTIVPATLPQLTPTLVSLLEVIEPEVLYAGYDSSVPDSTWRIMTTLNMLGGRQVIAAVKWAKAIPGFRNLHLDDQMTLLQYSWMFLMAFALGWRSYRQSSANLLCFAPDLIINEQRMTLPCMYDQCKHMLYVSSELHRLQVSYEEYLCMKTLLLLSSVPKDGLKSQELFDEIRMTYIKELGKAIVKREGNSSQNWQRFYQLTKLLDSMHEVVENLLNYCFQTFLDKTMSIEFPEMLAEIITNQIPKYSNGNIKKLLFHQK
Type: cell-based
In short: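 Antagonist mode: compounds (8 serial 1:5 dilutions) added to GR-MMTV-luciferase CHO-K1 reporter cells co-exposed to 10 nM dexamethasone final, in phenol red-free DMEM plus 10% CSS. After roughly 18-24 h at 37° C, OneGlo luminescence read and IC50 calculated.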

| Compound | IC50 |
| --- | --- |
| CCN([C@H]1CCC2=Cc3c(cnn3-c3ccc(F)cc3)C[C@]2(C(=O)c2nccs2)C1)S(=O)(=O)c1ccn(C)n1 [Example 167, N-ethyl-N-((4aS,6S)-1-(4-fluorophenyl)-4a-(thiazole-2-carbonyl)-4,4a,5,6,7,8-hexahydro-1H-benzo[f]indazol-6-yl)-1-methyl-1H-pyrazole-3-sulfonamide] | ≤ 100 nM |
| Cn1cc(S(=O)(=O)N(C2CC2)[C@H]2CCC3=Cc4c(cnn4-c4ccc(F)cc4)C[C@]3(C(=O)c3nccs3)C2)cn1 [Example 168, N-cyclopropyl-N-((4aS,6S)-1-(4-fluorophenyl)-4a-(thiazole-2-carbonyl)-4,4a,5,6,7,8-hexahydro-1H-benzo[f]indazol-6-yl)-1-methyl-1H-pyrazole-4-sulfonamide] | ≤ 100 nM |
| CN([C@H]1CCC2=Cc3c(cnn3-c3ccc(F)cc3)C[C@]2(C(=O)c2cc(C(F)(F)F)ccn2)C1)S(=O)(=O)c1cnnn1C [Example 169, N-((4aS,6S)-1-(4-fluorophenyl)-4a-(4-(trifluoromethyl)picolinoyl)-4,4a,5,6,7,8-hexahydro-1H-benzo[f]indazol-6-yl)-N,1-dimethyl-1H-1,2,3-triazole-5-sulfonamide] | ≤ 100 nM |
| Cn1cc(S(=O)(=O)N(C2CC2)[C@H]2CCC3=Cc4c(cnn4-c4ccc(F)cc4)C[C@]3(C(=O)c3ncc(C4CC4)s3)C2)cn1 [Example 171, N-cyclopropyl-N-((4aS,6S)-4a-(5-cyclopropylthiazole-2-carbonyl)-1-(4-fluorophenyl)-4,4a,5,6,7,8-hexahydro-1H-benzo[f]indazol-6-yl)-1-methyl-1H-pyrazole-4-sulfonamide] | ≤ 100 nM |
| Cn1ccc(S(=O)(=O)N(CC2CC2)[C@H]2CCC3=Cc4c(cnn4-c4ccc(F)cc4)C[C@]3(C(=O)c3nccs3)C2)n1 [Example 172, N-(cyclopropylmethyl)-N-((4aS,6S)-1-(4-fluorophenyl)-4a-(thiazole-2-carbonyl)-4,4a,5,6,7,8-hexahydro-1H-benzo[f]indazol-6-yl)-1-methyl-1H-pyrazole-3-sulfonamide] | ≤ 100 nM |
| Cn1ncc(S(=O)(=O)N(C2CC2)[C@H]2CCC3=Cc4c(cnn4-c4ccc(F)cc4)C[C@]3(C(=O)c3nccs3)C2)n1 [Example 173, N-cyclopropyl-N-((4aS,6S)-1-(4-fluorophenyl)-4a-(thiazole-2-carbonyl)-4,4a,5,6,7,8-hexahydro-1H-benzo[f]indazol-6-yl)-2-methyl-2H-1,2,3-triazole-4-sulfonamide] | ≤ 100 nM |
| Cn1ncc(S(=O)(=O)N(C2CC2)[C@H]2CCC3=Cc4c(cnn4-c4ccc(F)cc4)C[C@]3(C(=O)c3ncc(C4CC4)s3)C2)n1 [Example 174, N-cyclopropyl-N-((4aS,6S)-4a-(5-cyclopropylthiazole-2-carbonyl)-1-(4-fluorophenyl)-4,4a,5,6,7,8-hexahydro-1H-benzo[f]indazol-6-yl)-2-methyl-2H-1,2,3-triazole-4-sulfonamide] | ≤ 100 nM |
| CCN([C@H]1CCC2=Cc3c(cnn3-c3ccc(F)cc3)C[C@]2(C(=O)c2ncc(C3CC3)s2)C1)S(=O)(=O)c1ccn(C)n1 [Example 175, N-((4aS,6S)-4a-(5-cyclopropylthiazole-2-carbonyl)-1-(4-fluorophenyl)-4,4a,5,6,7,8-hexahydro-1H-benzo[f]indazol-6-yl)-N-ethyl-1-methyl-1H-pyrazole-3-sulfonamide] | ≤ 100 nM |
| O=C(c1ncc(C(F)(F)F)s1)[C@]12Cc3cnn(-c4ccc(F)cc4)c3C=C1CC[C@H](N(C1CC1)S(=O)(=O)c1cnn(C(F)F)c1)C2 [Example 180, N-cyclopropyl-1-(difluoromethyl)-N-((4aS,6S)-1-(4-fluorophenyl)-4a-(5-(trifluoromethyl)thiazole-2-carbonyl)-4,4a,5,6,7,8-hexahydro-1H-benzo[f]indazol-6-yl)-1H-pyrazole-4-sulfonamide] | ≤ 100 nM |
| Cn1cc(S(=O)(=O)N(CC2CC2)[C@H]2CCC3=Cc4c(cnn4-c4ccc(F)cc4)C[C@]3(C(=O)c3ncc(C(F)(F)F)s3)C2)cn1 [Example 181, N-(cyclopropylmethyl)-N-((4aS,6S)-1-(4-fluorophenyl)-4a-(5-(trifluoromethyl)thiazole-2-carbonyl)-4,4a,5,6,7,8-hexahydro-1H-benzo[f]indazol-6-yl)-1-methyl-1H-pyrazole-4-sulfonamide] | ≤ 100 nM |
| CC(C)N([C@H]1CCC2=Cc3c(cnn3-c3ccc(F)cc3)C[C@]2(C(=O)c2ncc(C3CC3)s2)C1)S(=O)(=O)c1ccn(C)n1 [Example 185, N-((4aS,6S)-4a-(5-cyclopropylthiazole-2-carbonyl)-1-(4-fluorophenyl)-4,4a,5,6,7,8-hexahydro-1H-benzo[f]indazol-6-yl)-N-isopropyl-1-methyl-1H-pyrazole-3-sulfonamide] | ≤ 100 nM |
| Cn1ccc(S(=O)(=O)N(CC2CC2)[C@H]2CCC3=Cc4c(cnn4-c4ccc(F)cc4)C[C@]3(C(=O)c3ncc(C4CC4)s3)C2)n1 [Example 187, N-(cyclopropylmethyl)-N-((4aS,6S)-4a-(5-cyclopropylthiazole-2-carbonyl)-1-(4-fluorophenyl)-4,4a,5,6,7,8-hexahydro-1H-benzo[f]indazol-6-yl)-1-methyl-1H-pyrazole-3-sulfonamide] | ≤ 100 nM |
| Cn1cc(C(=O)N(C2CC2)[C@H]2CCC3=Cc4c(cnn4-c4ccc(F)cc4)C[C@]3(C(=O)c3ncc(C(F)(F)F)s3)C2)cn1 [Example 188, N-cyclopropyl-N-((4aS,6S)-1-(4-fluorophenyl)-4a-(5 (trifluoromethyl)thiazole-2-carbonyl)-4,4a,5,6,7,8-hexahydro-1H-benzo[f]indazol-6-yl)-1-methyl-1H-pyrazole-4-carboxamide] | ≤ 100 nM |

Next, values leading:

| IC50 | Compound |
| --- | --- |
| ≤ 100 nM | CCN([C@H]1CCC2=Cc3c(cnn3-c3ccc(F)cc3)C[C@]2(C(=O)c2ncc(C3CC3)s2)C1)S(=O)(=O)c1cnn(C)c1 [Example 154, N-((4aS,6S)-4a-(5-cyclopropylthiazole-2-carbonyl)-1-(4-fluorophenyl)-4,4a,5,6,7,8-hexahydro-1H-benzo[f]indazol-6-yl)-N-ethyl-1-methyl-1H-pyrazole-4-sulfonamide] |
| ≤ 100 nM | CCn1ccc(S(=O)(=O)N(C)[C@H]2CCC3=Cc4c(cnn4-c4ccc(F)cc4)C[C@]3(C(=O)c3cc(C(F)(F)F)ccn3)C2)n1 [Example 157, 1-ethyl-N-((4aS,6S)-1-(4-fluorophenyl)-4a-(4-(trifluoromethyl)picolinoyl)-4,4a,5,6,7,8-hexahydro-1H-benzo[f]indazol-6-yl)-N-methyl-1H-pyrazole-3-sulfonamide] |
| ≤ 100 nM | CCn1cc(S(=O)(=O)N(C2CC2)[C@H]2CCC3=Cc4c(cnn4-c4ccc(F)cc4)C[C@]3(C(=O)c3cc(C(F)(F)F)ccn3)C2)cn1 [Example 158, N-cyclopropyl-1-ethyl-N-((4aS,6S)-1-(4-fluorophenyl)-4a-(4-(trifluoromethyl)picolinoyl)-4,4a,5,6,7,8-hexahydro-1H-benzo[f]indazol-6-yl)-1H-pyrazole-4-sulfonamide] |
| ≤ 100 nM | O=C(c1nccs1)[C@]12Cc3cnn(-c4ccc(F)cc4)c3C=C1CC[C@H](N(C1CC1)S(=O)(=O)c1ccc(F)cc1)C2 [Example 159, N-cyclopropyl-4-fluoro-N-((4aS,6S)-1-(4-fluorophenyl)-4a-(thiazole-2-carbonyl)-4,4a,5,6,7,8-hexahydro-1H-benzo[f]indazol-6-yl)benzenesulfonamide] |
| ≤ 100 nM | CN([C@H]1CCC2=Cc3c(cnn3-c3ccc(F)cc3)C[C@]2(C(=O)c2nccs2)C1)S(=O)(=O)c1cnn(C)n1 [Example 161, N-((4aS,6S)-1-(4-fluorophenyl)-4a-(thiazole-2-carbonyl)-4,4a,5,6,7,8-hexahydro-1H-benzo[f]indazol-6-yl)-N,2-dimethyl-2H-1,2,3-triazole-4-sulfonamide] |
| ≤ 100 nM | CN([C@H]1CCC2=Cc3c(cnn3-c3ccc(F)cc3)C[C@]2(C(=O)c2nccs2)C1)S(=O)(=O)c1cnn(C2CC2)n1 [Example 162, 2-cyclopropyl-N-((4aS,6S)-1-(4-fluorophenyl)-4a-(thiazole-2-carbonyl)-4,4a,5,6,7,8-hexahydro-1H-benzo[f]indazol-6-yl)-N-methyl-2H-1,2,3-triazole-4-sulfonamide] |
| ≤ 100 nM | CN([C@H]1CCC2=Cc3c(cnn3-c3ccc(F)cc3)C[C@]2(C(=O)c2cc(C(F)(F)F)ccn2)C1)S(=O)(=O)c1cn(C)cn1 [Example 163, N-((4aS,6S)-1-(4-fluorophenyl)-4a-(4-(trifluoromethyl)picolinoyl)-4,4a,5,6,7,8-hexahydro-1H-benzo[f]indazol-6-yl)-N,1-dimethyl-1H-imidazole-4-sulfonamide] |
| ≤ 100 nM | CCN([C@H]1CCC2=Cc3c(cnn3-c3ccc(F)cc3)C[C@]2(C(=O)c2nccs2)C1)S(=O)(=O)c1cnn(C(F)F)c1 [Example 165, 1-(difluoromethyl)-N-ethyl-N-((4aS,6S)-1-(4-fluorophenyl)-4a-(thiazole-2-carbonyl)-4,4a,5,6,7,8-hexahydro-1H-benzo[f]indazol-6-yl)-1H-pyrazole-4-sulfonamide] |
